Test results taken from patent US20110142866A1, “PEPTIDE ANALOGUES AND CONJUGATES THEREOF” (Eldrug S.A., priority 2007, published 2011).
Where “and” joins values, the source holds several entries; their conditions need not be identical. Equal entries are not always repeated. Entries after “also recorded” stand apart in the source; their conditions may differ.

Tests used:
[1] = tested on: IFN-γ secretion by T cells; assay: IFN-γ ELISpot of spleen cells from immunized mice; type: in vivo, SJL/J mice; parameters: key to IFN-γ: −: negative; +/−: very weak; +: weak; ++: moderate; +++: strong
Protocol: (§1) Female 6-8 week old SJL/J mice used in all experiments, were purchased from Walter and Eliza Hall Institute (VIC Australia) and housed at the Biological Research Laboratory at Burnet Institute at Austin, Heidelberg, Australia. SJL/J mice were immunized twice on days 0, 14 intradermally (base of tail) with 50 μg MBP83-99 peptide analogue-KLH-reduced mannan.
(§2) ELISpot analyses specific T cell responses to antigens by detecting the secretion of specific cytokines. Spleen cells from immunized SJL/J mice were isolated 14 days after immunization and assessed by ELISpot for IFN-γ, IL-4 or IL-10 secretion by T cells. IFN-γ ELISpot assay was performed on MultiScreen-IP Filter Plate (MAIP S4510) with hydrophobic PVDF filters (Millipore, UK) while IL-4 and IL-10 ELISpot was performed on MultiScreen-HA Filter Plate (MAHA S4510) with mixed cellulose esters filters (Millipore, UK). MAIP S4510 plates were pre-wet with 50 μl of 70% ethanol, washed 5 times with 200 μl sterile PBS and coated with 70 μl of 5 μg/ml anti-IFN-γ capture antibody, AN18 (Mabtech, Australia) in PBS and left to incubate at 4° C. O/N. While 70 μl of 5 μg/ml anti-IL-4 and anti-IL-10 capture antibody (Mabtech, Australia) was added directly to MAHA S4510 plates and incubated at 4° C. O/N without 70% ethanol treatment. Following 5 washes with PBS, plates were blocked by adding 200 μl of culture media (supplemented with 2.5% FCS) and incubated for 2 hours at 37° C. The blocking media was discarded and 10 μg/ml recall peptides (MBP83-99 peptide analogues not conjugated to KLH-reduced mannan) were added into each defined well. Con A (1.0 μg/ml; IL-4 and IFN-γ) or LPS (1.0 μg/ml; IL-10) were used as an internal positive controls and no peptide was used as negative control. Triplicate wells were set up for each condition. 5×10^5 spleen cells in 100 μl culture media were seeded into each well and incubated for 18 hours for IFN-γ, 24 hours for IL-4 and 48 hours for IL-10 at 37° C. Plates were washed 5 times PBS/0.05% Tween 20 and 5 times PBS and incubated for 2 hours at RT with anti-murine IFN-γ, IL-4 or IL-10 monoclonal antibody-biotin. Plates were washed and streptavidin-ALP was added at 1.0 μg/ml and incubated for 2.0 hours at RT. Spots of activity were detected using a colorimetric AP kit (Biorad, Hercules, Calif. USA) and counted using an AID ELISpot plate reader (Autoimmun Diagnostika GmbH, Germany). Data are presented as mean spot forming units (sfu) per 0.5×10^6 cells +/−standard error of the mean (SEM).
(§3) MBP87-99, [R^91, A^96]MBP87-99 or [A^91, A^96]MBP87-99 peptides were dissolved in PBS and emulsified in an equal volume of complete Freund's adjuvant (CFA) which contained 1.0 mg/ml of heat killed Mycobacterium tuberculosis H37RA (Sigma, Victoria, Australia). SJL/J mice were given one subcutaneous injection containing 50 μg peptide into the base of tail.
(§4) SJL/J mice were immunized twice on days 0 and 14 intradermally (base of tail) with 50 μg MBP87-99-KLH-reduced mannan, [R^91, A^96]MBP87-99-KLH-reduced mannan or [A^91, A^96]MBP87-99-KLH-reduced mannan conjugates.
(§5) ELISpot detects specific T cell responses to antigens by measuring the secretion of specific cytokines from individual cells. Spleen cells from immunized SJL/J mice were isolated 28 days after CFA immunization or 14 days after the last immunization with reduced mannan-peptides and assessed by ELISpot for IFN-γ and IL-4 secretion by T cells. IFN-γ ELISpot assay was performed on MultiScreen-IP Filter Plate (MAIP S4510) with hydrophobic PVDF filters (Millipore, UK), while IL-4 ELISpot assays were performed on MultiScreen-HA Filter Plate (MAHA S4510) with mixed cellulose esters filters (Millipore, UK). MAIP S4510 plates were pre-weted with 50 μl of 70% ethanol, washed 5 times with 200 μl of sterile phosphate-buffered saline (PBS) and coated with 70 μl of 5 μg/ml anti-IFN-γ capture antibody, AN18 (Mabtech, Australia) in PBS and incubated O/N at 4° C. […]

[2] = tested on: IL-4 secretion by T cells; assay: IL-4 ELISpot of spleen cells from immunized mice; type: in vivo, SJL/J mice; parameters: key to IL-4: −: negative; +/−: very weak; +: weak; ++: moderate; +++: strong; settings: for IL-4 responses: peptide conjugated to reduced mannan, two injections
Protocol: as §1, §2, §3, §4, §5

[3] = tested on: respective peptides conjugated to BSA or KLH; assay: ELISA total IgG antibody responses to the respective peptide; type: in vivo, SJL/J mice; parameters: key to Antibody: −: negative; +/−: very weak; +: weak; ++: moderate; +++: strong
Protocol: Blood was collected and sera isolated from mice prior to and 4 weeks after immunization with CFA or 14 days after the last immunization with reduced mannan conjugates. MBP87-99 or [A^91, A^96]MBP87-99 peptides conjugated to BSA or KLH were coated onto polyvinyl chloride (PVC) microtiter plates at 10 μg/ml in 0.2 M NaHCO3 buffer, pH 9.6, 0/N at 4° C. Non-specific binding was blocked with 2% BSA for 1.0 h at RT. After washing (0.05 Tween 20/PBS), serial dilutions of sera were added and incubated for a further 2 h at RT. The plates were washed and bound antibody was detected using HRP-conjugated sheep anti-mouse antibody (1/1000 dilution in PBS) (Amersham, UK) and developed using 2,2′-azino-di(3-ethylbenzthiazoline)6-sulfonic acid (ABTS) (Sigma, UK). Absorbance at 405 nm was recorded using a Fluostar Optima microplate reader (BMG labtech, Offenburg, Germany).
ELISpot assays for IFN-γ and IL-4 secretion by T cells and ELISA assays for binding of sera to native MBP protein or peptide were carried out as previously described^3, 4, 20, 21. Mean values were compared using the Student's two-tailed t-test. P value threshold of p<0.01 indicates a statistically significant difference.

[4] = Stability to proteolysis; type: in vitro ADME; settings: compared to linear counterparts
[5] = tested on: IL-10 secretion by T cells; assay: IL-10 ELISpot of spleen cells from immunized mice; type: in vivo, SJL/J mice; parameters: key to IL-10: −: negative; +/−: very weak; +: weak; ++: moderate; +++: strong; settings: for IL-10: Table 2, peptide analogues conjugated to reduced mannan-KLH; for IL-10 production by T cells (in words): peptide conjugated to reduced mannan, two injections
Protocol: as §1, §2

[6] = 50 μg peptide conjugated to reduced mannan, two intradermal injections, spleen cells 14 days post-immunization
[7] = 50 μg peptide emulsified in CFA, one injection, spleen cells 28 days
[8] = Table 3, peptide analogues emulsified in complete Freund's adjuvant
[9] = Table 2, peptide analogues conjugated to reduced mannan-KLH
[10] = peptide conjugated to reduced mannan

Row | Compound | IFN-γ secreting T cells (in words) [1, 6] | IFN-γ secreting T cells (in words) [1, 7] | IFN-γ [1, 8] | IL-4 secreting T cells (in words) [2, 6] | IL-4 secreting T cells (in words) [2, 7] | IL-4 [2, 8] | IgG antibody responses (in words) ([3]; peptide emulsified in CFA) | stability to the proteolysis [4] | IFN-γ [1, 9] | IL-4 [2, 9] | IL-4 responses [2] | Antibody [3, 9] | Antibody [3, 8] | subclass of the antibodies induced [3, 10] | total IgG antibody titer [3, 10] | IL-10 [5] | IL-10 production by T cells (in words) [5] | IgG antibody responses (in words) [3, 10]
1 | CC[C@H](C)[C@@H]1NC(=O)[C@H](CC(N)=O)NC(=O)[C@H](CCCCN)NC(=O)[C@H](Cc2ccccc2)NC(=O)[C@H](Cc2ccccc2)NC(=O)[C@H](Cc2c[nH]cn2)NC(=O)[C@H](C(C)C)NC(=O)[C@H](C(C)C)NC(=O)[C@@H]2CCCN2C(=O)[C@H](CC(N)=O)NC(=O)[C@H](CCC(=O)O)NC(=O)[C@@H]2CCCN2C(=O)[C@H]([C@@H](C)O)NC(=O)[C@H](CCCNC(=N)N)NC(=O)[C@@H]2CCCN2C(=O)[C@H]([C@@H](C)O)NC(=O)[C@H](C(C)C)NC1=O [cyclo(83-99)MBP83-99, cyclo(83-99)E N P V V H F F K N I V T P R T P] | weak and generated IFN-γ secreting T cells | induced IFN-γ responses | + | did not stimulate; also recorded: weak or no | induced IL-4 | − | antibodies were generated | increases stability to the proteolysis |  |  |  |  |  |  |  |  |  | 
2 | E N P V V H F F A N I V T P R T P (ENPVVHFFANIVTPRTP) [[A^91]MBP83-99] | negative | lower | − | high levels | not able to generate IL-4 | − | able to induce IgG antibody responses |  | − | +++ | up to 600 SFU/0.5 million cells | + | ++ | IgG1 | 1/640 |  |  | 
3 | E N P V V H F F E N I V T P R T P (ENPVVHFFENIVTPRTP) [[E^91]MBP83-99] |  |  | − | high levels |  | − |  |  | − | +++ |  | +++ | ++ | IgG1 |  |  |  | 
4 | E N P V V H F F F N I V T P R T P (ENPVVHFFFNIVTPRTP) [[F^91]MBP83-99] | weak and induced |  | ++ | high levels; also recorded: induced |  | − |  |  | ++ | +++ |  | +/− | ++ |  | 1/800 | ++ | moderate levels; also recorded: induced | weak
5 | E N P V V H F F K N I V T P R T P (ENPVVHFFKNIVTPRTP) [MBP83-99, reference compound] | weak and generated IFN-γ secreting T cells and high levels | induced IFN-γ responses | + | did not stimulate; also recorded: weak or no; also recorded: low levels | did not induce IL-4 | − | did not generate IgG antibodies |  | ++ | − |  | +++ | − |  |  |  |  | 
6 | E N P V V H F F R N I V T A R T P (ENPVVHFFRNIVTARTP) [[R^91, A^96]MBP83-99] | no IFN-γ |  | ++ | high levels |  | ++ |  |  | − | +++ |  | +++ | ++ | IgG1 |  |  |  | 
7 | E N P V V H F F Y N I V T P R T P (ENPVVHFFYNIVTPRTP) [[Y^91]MBP83-99] |  |  | − | high levels |  | − |  |  | − | +++ |  | +++ | − | IgG1 |  | ++ | moderate levels | 
8 | cyclo(83-99)E N P V V H F F A N I V T P R T P (ENPVVHFFANIVTPRTP; cyclised or stapled) [cyclo(83-99)[A^91]MBP83-99] | negative | lower | − | negative | did generate IL-4 | − | enhanced |  | − | − | up to 70 SFU/0.5 million cells | +/− | + |  | 1/800 and 1/1600 |  |  | 
